This experiment addresses T1, human mAChR M4 (Homo sapiens, UniProt P08173).
T1 construct: expressed in transfected cells; host or cells: CHO-K1 (ATCC), stably co-expressing the chimeric G protein Gqi5
T1 sequence (P08173 1-479): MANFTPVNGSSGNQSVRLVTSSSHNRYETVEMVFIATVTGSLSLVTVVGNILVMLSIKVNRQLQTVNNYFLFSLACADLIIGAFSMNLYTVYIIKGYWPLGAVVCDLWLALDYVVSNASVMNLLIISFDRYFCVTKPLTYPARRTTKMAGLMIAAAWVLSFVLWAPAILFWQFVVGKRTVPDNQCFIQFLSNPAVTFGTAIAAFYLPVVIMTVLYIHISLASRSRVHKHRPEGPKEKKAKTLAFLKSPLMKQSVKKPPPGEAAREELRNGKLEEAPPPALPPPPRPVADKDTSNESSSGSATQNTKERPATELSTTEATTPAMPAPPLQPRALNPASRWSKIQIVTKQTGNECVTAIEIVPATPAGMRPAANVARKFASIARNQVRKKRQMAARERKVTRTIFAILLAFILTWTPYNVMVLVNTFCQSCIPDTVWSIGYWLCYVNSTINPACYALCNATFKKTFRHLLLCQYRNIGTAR
Description: mAChR M4 cell-based functional assay (calcium flux, decrease of EC80 acetylcholine response). The note with it: for remaining activity at 30 µM: % ACh maximum at 30 μM, human M4, read-out: Emin; for IC50: M4/Gqi5/CHO-K1 cells, decrease of response to EC80 acetylcholine. The procedure:
Human or rat M4 cDNA, along with the chimeric G protein Gqi5, were transfected into Chinese hamster ovary (CHO-K1) cells purchased from the American Type Culture Collection using Lipofectamine2000. M4/Gqi5/CHO cells were grown in Ham's F-12 medium containing 10% heat-inactivated fetal bovine serum (FBS), 20 mM HEPES, 500 μg/mL G418 sulfate, and 200 μg/mL Hygromycin B.
For high throughput measurement of agonist-evoked increases in intracellular calcium, CHO-K1 cells stably expressing muscarinic receptors were plated in growth medium lacking G418 and hygromycin at 15,000 cells/20 μL/well in Greiner 384-well black-walled, tissue culture (TC)-treated, clear-bottom plates (VWR). Cells were incubated overnight at 37° C. and 5% CO2. The next day, cells were washed using an ELX 405 (BioTek) with assay buffer: the final volume was then aspirated to 20 μL. Next, 20 μL of a 2.3 μM stock of Fluo-4/acetoxymethyl ester (Invitrogen, Carlsbad, Calif.), prepared as a 2.3 mM stock in DMSO and mixed in a 1:1 ratio with 10% (w/v) Pluronic F-127 and diluted in assay buffer, was added to the wells and the cell plates were incubated for 50 min at 37° C. and 5% CO2. Dye was removed by washing with the ELX 405 and the final volume was aspirated to 20 μL. Compound master plates were formatted in a 10 point concentration-response curve (CRC) format (1:3 dilutions) in 100% DMSO with a starting concentration of 10 or 1 mM using a BRAVO liquid handler (Agilent). Test compound CRCs were then transferred to daughter plates (240 nL) using the Echo acoustic plate reformatter (Labcyte, Sunnyvale, Calif.) and then diluted into assay buffer (40 μL) to a 2× stock using a Thermo Fisher Combi (Thermo Fisher Scientific, Waltham, Mass.).
Calcium flux was measured using the Functional Drug Screening System (FDSS) 6000 or 7000 (Hamamatsu Corporation, Tokyo, Japan) as an increase in the fluorescent static ratio. Compounds were applied to cells (20 μL, 2×) using the automated system of the FDSS at 2 seconds into the protocol and the data were collected at 1 Hz. At 143 s, 10 μL of an EC20 concentration of the muscarinic receptor agonist acetylcholine was added (5×), followed by the addition of 12 μL of an EC80 concentration of acetylcholine at the 268 s time point (5×). Agonist activity was analyzed as a concentration-dependent increase in calcium mobilization upon compound addition. Positive allosteric modulator activity was analyzed as a concentration-dependent increase in the EC20 acetylcholine response. Antagonist activity was analyzed as a concentration-dependent decrease in the EC80 acetylcholine response; for the purposes of the tables herein, an IC50 (inhibitory concentration 50) was calculated as a concentration-dependent decrease of the response elicited by an EC80 concentration of acetylcholine. Concentration-response curves were generated using a four-parameter logistical equation in XLFit curve fitting software (IDBS, Bridgewater, N.J.) for Excel (Microsoft, Redmond, Wash.) or Prism (GraphPad Software, Inc., San Diego, Calif.) or the Dotmatics software platform (Dotmatics, Bishop's Stortford, UK).
Compounds were synthesized as described above. Activity (IC50 and Emin) was determined in the mAChR M4 cell-based functional assay as described above and the data are shown in Table 4. The compound numbers correspond to those used in Examples 1-4 and Tables 1-3.
On the technique in general: Calcium flux is commonly read through the fluorescence of an indicator in the cells.

On to `CC(=O)Nc1ccc(-c2ccc(NC3CC4(C3)CN(CCC(C)(C)C)C4)nn2)cc1` [Compound 1, N-(4-(6-((2-(3,3-Dimethylbutyl)-2-azaspiro[3.3]heptan-6-yl)amino)pyridazin-3-yl)phenyl)acetamide], for which the remaining activity at 30 µM worked out at 9.8% and the IC50 (as a rule, the point on the concentration scale where inhibition reaches its midpoint) turned out to be 1310 nM.
In the case of `Cc1nn(C)cc1-c1ccc(NC2CC3(C2)CN(CC2CCOCC2)C3)nn1` [Compound 2, N-(6-(1,3-dimethyl-1H-1-pyrazol-4-yl)pyridazin-3-yl)-2-((tetrahydro-2H-pyran-4-yl)methyl)-2-azaspiro[3.3]heptan-6-amine], the remaining activity at 30 µM turned out to be 46.5% and the IC50 was determined as 10000 nM.
As to `Fc1ccc(Cl)c(-c2ccc(NC3CC4(C3)CN(CC3CC5C=CC3C5)C4)nn2)c1` (stereo not shown) [Compound 3, 2-(bicyclo[2.2.1]hept-5-en-2-ylmethyl)-N-(6-(2-chloro-5-fluorophenyl)pyridazin-3-yl)-2-azaspiro[3.3]heptan-6-amine], the remaining activity at 30 µM was 4% and the IC50 came out at 100 nM.
In the case of `CC(C)(C)CCN1CC2(CC(Nc3ccc(-c4cc(F)ccc4Cl)nn3)C2)C1` [Compound 4, N-(6-(2-chloro-5-fluorophenyl)pyridazin-3-yl)-2-(3,3-dimethylbutyl)-2-azaspiro[3.3]heptan-6-amine], the remaining activity at 30 µM came out at 2.8% and the IC50 amounted to 160 nM.
For `Fc1ccc(Cl)c(-c2ccc(NC3CC4(C3)CN(CC3CCCCC3)C4)nn2)c1` [Compound 5, N-(6-(2-chloro-5-fluorophenyl)pyridazin-3-yl)-2-(cyclohexylmethyl)-2-azaspiro[3.3]heptan-6-amine], in that order: 3.1% and 210 nM.
Turning to `Fc1ccc(Cl)c(-c2ccc(NC3CC4(C3)CN(CC3CCCOC3)C4)nn2)c1` (stereo not shown) [Compound 6, N-(6-(2-chloro-5-fluorophenyl)pyridazin-3-yl)-2-((tetrahydro-2H-pyran-3-yl)methyl)-2-azaspiro[3.3]heptan-6-amine], the remaining activity at 30 µM was found to be 5.4% and the IC50 was 2480 nM.
For the molecule `Fc1ccc(Cl)c(-c2ccc(NC3CC4(C3)CN(CC3CCOCC3)C4)nn2)c1` [Compound 7, N-(6-(2-chloro-5-fluorophenyl)pyridazin-3-yl)-2-((tetrahydro-2H-pyran-4-yl)methyl)-2-azaspiro[3,3]heptan-6-amine], the remaining activity at 30 µM was determined as 7.8% and the IC50 turned out to be 2270 nM.
Consider `Fc1ccc(Cl)c(-c2ccc(NC3CC4(C3)CN(CC35CC6CC(CC(C6)C3)C5)C4)nn2)c1` [Compound 8, 2-(adamantan-1-ylmethyl)-N-(6-(2-chloro-5-fluorophenyl)pyridazin-3-yl)-2-azaspiro[3.3]heptan-6-amine], for which the remaining activity at 30 µM worked out at 3.8% and the IC50 came out at 150 nM.
For `Cc1nn(C)cc1-c1ccc(NC2CC3(C2)CN(CCC(C)(C)C)C3)nn1` [Compound 9, N-(6-(1,3-dimethyl-1H-pyrazol-4-yl)pyridazin-3-yl)-2-(3,3-dimethylbutyl)-2-azaspiro[3.3]heptan-6-amine], in that order: 12.4% and 2890 nM.
In the case of `Cc1cnn(C)c1-c1ccc(NCC2CC3(C2)CN(CCC(C)(C)C)C3)nn1` [Compound 11, 6-(1,4-Dimethyl-1H-pyrazol-5-yl)-N-((2-(3,3-dimethylbutyl)-2-azaspiro[3.3]heptan-6-yl)methyl)pyridazin-3-amine], the remaining activity at 30 µM came out at 6.5% and the IC50 came out at 1350 nM.
On to `Cc1nn(C)cc1-c1ccc(NCC2CC3(C2)CN(CC2CC4C=CC2C4)C3)nn1` (stereo not shown) [Compound 12, N-((2-(bicyclo[2.2.1]hept-5-en-2-ylmethyl)-2-azaspiro[3.3]heptan-6-yl)methyl)-6-(1,3-dimethyl-1H-pyrazol-4-yl)pyridazin-3-amine], for which the remaining activity at 30 µM worked out at 3.6% and the IC50 came to 700 nM.
With `Cc1nn(C)cc1-c1ccc(NCC2CC3(C2)CN(CC(C)C(C)(C)C)C3)nn1` (stereo not shown) [Compound 13, 6-(1,3-dimethyl-1H-pyrazol-4-yl)-N-((2-(2,3,3-trimethylbutyl)-2-azaspiro[3.3]heptan-6-yl)methyl)pyridazin-3-amine], the remaining activity at 30 µM is 6.1% and the IC50 is 1530 nM.
For the molecule `Fc1ccc(Cl)c(-c2ccc(NCC3CC4(C3)CN(CC3CC5C=CC3C5)C4)nn2)c1` (stereo not shown) [Compound 14, N-((2-(bicyclo[2.2.1]hept-5-en-2-ylmethyl)-2-azaspiro[3.3]heptan-6-yl)methyl)-6-(2-chloro-5-fluorophenyl)pyridazin-3-amine], the remaining activity at 30 µM was determined as 2.6% and the IC50 was found to be 59 nM.
On to `Cc1nn(C)cc1-c1ccc(NCC2CC3(C2)CN(CCC(C)(C)C)C3)nn1` [Compound 15, 6-(1,3-dimethyl-1H-pyrazol-4-yl)-N-((2-(3,3-dimethylbutyl)-2-azaspiro[3.3]heptan-6-yl)methyl)pyridazin-3-amine], for which the remaining activity at 30 µM worked out at 7.5% and the IC50 came out at 1490 nM.
The matching figures for `Cc1nn(C)cc1-c1ccc(NCC2CC3(C2)CN(CC2CCCCC2)C3)nn1` [Compound 16, N-((2-(cyclohexylmethyl)-2-azaspiro[3.3]heptan-6-yl)methyl)-6-(1,3-dimethyl-1H-pyrazol-4-yl)pyridazin-3-amine]: 13.5% and 4140 nM.
For `CC(=O)Nc1ccc(-c2ccc(NCC3CC4(C3)CN(CCC(C)(C)C)C4)nn2)cc1` [Compound 17, N-(4-(6-(((2-(3,3-dimethylbutyl)-2-azaspiro[3.3]heptan-6-yl)methyl)amino)pyridazin-3-yl)phenyl)acetamide], in that order: 7.8% and 2200 nM.
`CC(=O)Nc1ccc(-c2ccc(NCC3CC4(C3)CN(CC3CC5C=CC3C5)C4)nn2)cc1` (stereo not shown) [Compound 18, N-(4-(6-(((2-(bicyclo[2.2.1]hept-5-en-2-ylmethyl)-2-azaspiro[3.3]heptan-6-yl)methyl)amino)pyridazin-3-yl)phenyl)acetamide]: the remaining activity at 30 µM is 8.1% and the IC50 was determined as 1550 nM.
On to `CC(=O)Nc1ccc(-c2ccc(NCC3CC4(C3)CN(CC3CCCCC3)C4)nn2)cc1` [Compound 19, N-(4-(6-(((2-(cyclohexylmethyl)-2-azaspiro[3.3]heptan-6-yl)methyl)amino)pyridazin-3-yl)phenyl)acetamide], for which the remaining activity at 30 µM was found to be 20.5% and the IC50 amounted to 8140 nM.
Consider `CC(C)(C)CCN1CC2(C1)CC1(CC1CNc1ccc(Cl)nn1)C2` (stereo not shown) [Compound 20, 6-Chloro-N-((7-(3,3-dimethylbutyl)-7-azadispiro[2.1.3^5.1^3]nonan-1-yl)methyl)pyridazin-3-amine], for which the remaining activity at 30 µM was determined as 4.9% and the IC50 amounted to 450 nM.
Regarding `Cc1nn(C)cc1-c1ccc(OCC2CC3(C2)CN(CC2CCCCC2)C3)nn1` [Compound 21, 2-(Cyclohexylmethyl)-6-(((6-(1,3-dimethyl-1H-pyrazol-4-yl)pyridazin-3-yl)oxy)methyl)-2-azaspiro[3.3]heptane], the remaining activity at 30 µM came to 8.6% and the IC50 came to 2340 nM.
